Measured values from patent publication US10272078B2, “Crystalline forms of a prolyl hydroxylase inhibitor” (FibroGen, Inc., priority 2012, dated 2019).

What was measured:
[1] = Moisture sorption; type: physicochemical; settings: between 5% to 95% relative humidity; lost on desorption
[2] = Solid form stability on storage (XRPD); type: physicochemical; settings: for XRPD pattern after storage: 40° C./75% RH
Description: X-Ray Powder Diffraction patterns were collected on a Bruker AXS C2 GADDS diffractometer using Cu Kα radiation (40 kV, 40 mA), automated XYZ stage, laser video microscope for auto-sample positioning and a HiStar 2-dimensional area detector. X-ray optics consists of a single Gobel multilayer mirror coupled with a pinhole collimator of 0.3 mm. […] The beam divergence, i.e. the effective size of the X-ray beam on the sample, was approximately 4 mm. […] Typically the sample would be exposed to the X-ray beam for 120 seconds. The software used for data collection was GADDS for WNT 4.1.16 and the data were analyzed and presented using Diffrac Plus EVA v11.0.0.2 or v13.0.0.2. Alternatively, X-Ray Powder Diffraction patterns were collected on a Bruker D8 diffractometer using Cu Kα radiation (40 kV, 40 mA), θ-2θ goniometer, and divergence of V4 and receiving slits, a Ge monochromator and a Lynxeye detector. […] The software used for data collection was Diffrac Plus XRD Commander v2.5.0 and the data were analyzed and presented using Diffrac Plus EVA v11.0.0.2 or v13.0.0.2. Samples were run under ambient conditions as flat plate specimens using powder as received. The sample was gently packed into a cavity cut into polished, zero-background (510) silicon wafer. The sample was rotated in its own plane during analysis. The details of the data collection are: • Angular range: 2 to 42° 2θ • Step size: 0.05° 2θ • Collection time: 0.5 s/step • Analysis duration: 7 minutes Differential Scanning Calorimetry (DSC)

Compound: Cc1nc(C(=O)NCC(=O)O)c(O)c2ccc(Oc3ccccc3)cc12 [Compound A Form A, [(4-hydroxy-1-methyl-7-phenoxy-isoquinoline-3-carbonyl)-amino]-acetic acid]
- moisture sorption weight gain [1]: approximately 0.2%

Compound: Cc1nc(C(=O)NCC(=O)O)c(O)c2ccc(Oc3ccccc3)cc12.NCCO [Compound A ethanolamine salt, [(4-hydroxy-1-methyl-7-phenoxy-isoquinoline-3-carbonyl)-amino]-acetic acid ethanolamine salt]
- XRPD pattern after storage [2]: Pattern 3 was observed

Compound: [(4-hydroxy-1-methyl-7-phenoxy-isoquinoline-3-carbonyl)-amino]-acetic acid diethanolamine salt [Compound A diethanolamine salt]
- XRPD pattern after storage [2]: Pattern 2 was observed

Compound: [(4-hydroxy-1-methyl-7-phenoxy-isoquinoline-3-carbonyl)-amino]-acetic acid hemihydrate [Compound A Form B]
- change of crystalline pattern on storage ([2]; 25° C./96% RH for twelve days): reverting to Form A
- change of crystalline form on storage (high resolution XRPD) ([2]; ambient temperature, a full month (32 days)): almost completely reverted to anhydrous Form A
